Measurements taken from patent publication US10479986B2, “Nucleic acid constructs and methods for labeling and detecting nucleosomal DNA modifications” (THE BROAD INSTITUTE, INC., priority 2016, dated 2019).

Experiments:
[1] = system: H3K27me3 levels in K562 cells; experiment: Western blot of H3K27me3 levels in treated K562 cells (acid extracted histones); type: cell-based, human; settings: 48 hr treatment
From the text: (§1) FIG. 13 is a western blot showing H3K27ac and H3K27me3 levels in K562 cells following treatment with the p300 inhibitor C646 or the EZH2 inhibitor […] (compared to a DMSO control). The total H3 is shown as loading control.
Data are typically normalized based on read numbers (“reads per million” or RPM). This presents complications when comparing between samples. To address this shortcoming, exogenous spike-in controls or semisynthetic standards were recently introduced (Bonhoure et al., 2014; Grzybowski et al., 2015; Orlando et al., 2014). The methods disclosed herein were assessed to determine whether the consistency of pooled sample processing could allow the capture of global modification levels without spike-in controls. […] After sequencing, the number of reads for H3K27ac and H3K27me3 were normalized to the number of reads for total H3.
It is noted the methods disclosed herein are preferential to open regions, as these are more sensitive to MNase digestion. This is evident in the relatively higher proportion of H3 reads that align to euchromatic regions (2-fold enrichment; compare to 1.2-fold enrichment in conventional ChIP-seq). […] To test this, Western blots to quantify H3K27me3 levels were used in MNase digested chromatin from K562 cells treated with GSK126.

[2] = system: H3K27ac levels in K562 cells; experiment: Western blot of H3K27ac levels in treated K562 cells; type: cell-based, human; settings: 48 hr treatment, vs DMSO control
From the text: as §1
Data are typically normalized based on read numbers (“reads per million” or RPM). This presents complications when comparing between samples. To address this shortcoming, exogenous spike-in controls or semisynthetic standards were recently introduced (Bonhoure et al., 2014; Grzybowski et al., 2015; Orlando et al., 2014). The methods disclosed herein were assessed to determine whether the consistency of pooled sample processing could allow the capture of global modification levels without spike-in controls. To this end, an additional IP was included with antibody to total H3, which was used as a normalization factor for the modifications (FIG. 12). The approach for measuring global changes was tested using small molecule inhibitors. K562 cells were treated with the p300 inhibitor C646 or the EZH2 inhibitor GSK126 (Ferrari et al., 2013; McCabe et al., 2012a). Western blots confirmed that H3K27ac levels were reduced by the acetyltransferase inhibitor C646, […] (FIG. 13). […] After sequencing, the number of reads for H3K27ac and H3K27me3 were normalized to the number of reads for total H3.

[3] = system: H3K27ac levels in K562 cells; experiment: Multiplexed barcoded ChIP-seq (Mint-ChIP), H3K27ac reads normalized to total H3 reads; type: cell-based, human; settings: 48 hours treatment
From the text: (§2) FIG. 12 is a schematic showing an example method for quantitatively normalizing sequencing data results, in accordance with certain example embodiments. The control or drug treated cells are indexed, pooled, and then split for parallel ChIP assays. The ratio between H3K27me3 reads and H3 reads is used to compare global H3K27me3 levels between sample and normalized corresponding profiles.
(§3) FIG. 14 is a set of bar graphs showing global modification levels inferred from Western blot (top) or in accordance with certain example embodiments (bottom). The respective methods were applied in parallel to the same sample of […] cells treated for 48 hours with the indicated inhibitors. The data are shown as a mean±SD of n=3 independent experiments (symbols indicate values from independent experiments).
(§4) First, procedures for simultaneously lysing and digesting chromatin from small numbers of K562 cells were modified. […]
(§5) Algorithms were developed to process Mint-ChIP seq results. First, the seq reads are de-multiplexed by index #2 to yield separate read files for each ChIP assay. Each of these read files is then further de-multiplexed by index #1 (T7-adapter barcode) to yield separate files for each sample. […] More than 90% of reads were successfully assigned to one of the T7-adapter barcodes (FIG. 5). […]

Toledo cells = experiment: Viable cell counts following GSK126 treatment; type: cell-based; settings: after 3 days
Procedure: (§6) FIG. 24 provides a set of bar plots depicting viable cell counts following 72 hour GSK126 treatment of Pfeiffer, SKM-1, and Toledo. The data are shown as mean±SD of technical triplicates×n=2 independent experiments (*p<0.05, **p<0.01, and ****p<0.0001).
(§7) The respective mutant lines were also treated with the EZH2 inhibitor GSK126, which reduced global H3K27me3 levels (Pfeiffer: 3.4-fold; SKM-1: 3.8-fold; and Toledo: 1.4-fold after 72 hr). Pfeiffer cells, which had the largest absolute decrease in H3K27me3, were the most sensitive to GSK126 treatment (Pfeiffer: 56±11% cell death after 3 days; SKM-1: 15±10%; and Toledo: 2±15%; FIG. 24) (McCabe et al., 2012a). H3K27me3 peaks were called in the naive and drug treated cell lines. Although treatment-associated changes in H3K27me3 are masked by conventional normalization, these changes are readily evident using the quantitative normalization inherent to the methods disclosed herein (FIG. 23). Thus, the methods disclosed herein can quantify differences in global chromatin landscapes of cancer cells representing different genotypes or drug treatments.

Pfeiffer cells = experiment: Viable cell counts following GSK126 treatment; type: cell-based; settings: after 3 days
Procedure: as §6, §7

SKM-1 cells = experiment: Viable cell counts following GSK126 treatment; type: cell-based; settings: SKM-1, after 3 days
Procedure: as §6, §7

[4] = system: H3K27me3 levels in K562 cells; experiment: Multiplexed barcoded ChIP-seq (Mint-ChIP), H3K27me3 reads normalized to total H3 reads; type: cell-based, human; settings: 48 hours treatment
From the text: as §2, §3, §4, §5

[5] = system: H3K27me3 levels in Pfeiffer cells; experiment: Mint-ChIP global H3K27me3 levels (ratio to H3 reads) after GSK126; type: cell-based; settings: after 72 hr
Procedure: (§8) FIG. 20 provides a set of heat maps comparing H3K27me3 (A) and H3K27ac (B) levels in different cell lines treated with GSK126, as quantified in accordance with certain example embodiments. The experiments were performed using two different MNase concentrations.
(§9) The methods disclosed herein were used to quantitatively compare H3K27me3 and H3K27ac landscapes in these three cell lines. First, the global modification levels based on the ratio of H3K27me3 (or H3K27ac) reads to H3 reads were quantified. H3K27me3 levels were 5.1-fold greater in Pfeiffer than the other cell lines, consistent with its EZH2 activating mutation (FIG. 20).
as §7

[6] = system: H3K27me3 levels in SKM-1 cells; experiment: as above; type: cell-based; settings: SKM-1, after 72 hr
Procedure: as §8, §9, §7

[7] = system: H3K27me3 levels in Toledo cells; experiment: as above; type: cell-based; settings: after 72 hr
Procedure: as §8, §9, §7

[8] = system: H3K27me3 levels in K562 cells; experiment: Western blot of H3K27me3 in MNase digested chromatin; type: cell-based, human; settings: 48 hr of treatment
From the text: It is noted the methods disclosed herein are preferential to open regions, as these are more sensitive to MNase digestion. This is evident in the relatively higher proportion of H3 reads that align to euchromatic regions (2-fold enrichment; compare to 1.2-fold enrichment in conventional ChIP-seq). These ratios are small relative to enrichments in ChIP-seq peaks, which range from 5- to 100-fold. However, they could account for increased sensitivity to early changes in H3K27me3 if these were also preferential to euchromatin. To test this, Western blots to quantify H3K27me3 levels were used in MNase digested chromatin from K562 cells treated with GSK126.

H3K4me3 in K562 cells = experiment: Multiplexed barcoded ChIP-seq (Mint-ChIP), H3K4me3 profiles with quantitative normalization to total H3; type: cell-based, human; settings: 96 hr treatment, vs DMSO
From the text: FIG. 17 is a set of graphs showing global H3K4me3 levels inferred in accordance with certain example embodiments. The data are shown as ±SD of four replicates n=3 experiments are shown.
FIG. 18 is a graph showing H3K4me3 profiles scaled by conventional or quantitative normalization.
FIG. 19 provides a composite plot depicting average H3K4me3 in K562 cells treated with DMSO or KDM5-C70 (A) with 10 kb regions surrounding the centers of 36,875 peaks that are shown; a bar blot showing the fraction of peaks within size windows (B); and a Venn diagram showing the number of peaks detected in K562 cells treated with DMSO or KDM5-70 (C). The data were generated in accordance with certain example embodiments.
(§10) (Labelle et al., 2014). The chromatin of K562 cells treated with DMSO or KDM5-C70 for 96 hr were barcoded and pooled. H3K4me3 and total H3 were then assayed. After sequencing, normalization of the number of H3K4me3 reads to the number of H3 reads reflected global modification levels and was consistent between experiments and also with Western blot analysis (FIG. 16 and FIG. 17). […] This effect was obscured when the data were subjected to conventional RPM normalization (FIG. 18).

[9] = system: H3K4me3 levels in K562 cells; experiment: Western blot of H3K4me3 levels in treated K562 cells; type: cell-based, human; settings: 96 hr treatment, vs DMSO
Procedure: FIG. 16 are Western blots showing increased H3K4me3 levels in K562 cells following treatment with the demethylase inhibitor KDM5-C70. The total H3 is shown as loading control and n=3 experiments are shown.
as §10

Row | SMILES | H3K27me3 levels (Western blot) [1] | H3K27ac levels (Western blot) [2] | ratio between H3K27ac reads and total H3 reads [3] | cell death (Toledo cells) | cell death (Pfeiffer cells) | cell death (SKM-1 cells) | H3K27me3 levels (H3K27me3 reads normalized to total H3 reads) [4] | reduction of global H3K27me3 levels [5] | reduction of global H3K27me3 levels [6] | reduction of global H3K27me3 levels [7] | H3K27me3 levels (Western blot, MNase digested chromatin) [8] | H3K4me3 coverage, domains and peaks (H3K4me3 in K562 cells) | H3K4me3 peak intensity (tracks scaled by inferred global levels) (H3K4me3 in K562 cells; quantitative normalization) | H3K4me3 levels (Western blot) [9]
1 | CC1=NN(c2ccc(C(=O)O)cc2)C(=O)/C1=C\c1ccc(-c2cc(C)c(C)cc2[N+](=O)[O-])o1 [C646] | did not detect significant changes | reduced | decreased | – | – | – | – | – | – | – | – | – | – | –
2 | CC[C@H](C)n1cc(C)c2c(C(=O)NCc3c(C)cc(C)[nH]c3=O)cc(-c3ccc(N4CCNCC4)nc3)cc21 [GSK126] | did not detect significant changes | increased | increased | 2±15% | 56±11% | 15±10% | consistent reduction | 3.4 fold | 3.8 fold | 1.4 fold | Consistent reductions | – | – | –
3 | CCOC(=O)c1ccnc(CNCC(=O)N(CC)CCN(C)C)c1 [KDM5-C70] | – | – | – | – | – | – | – | – | – | – | – | increases H3K4me3 coverage and widens existing domains, while also generating new H3K4me3 peaks | increased peak intensity | increased
